One block for each molecule: values may come before it. Activity calls are given as the source filed them. No cut-off for these calls is given here.
Legend:
[1] = molecular target: cGMP-specific 3',5'-cyclic phosphodiesterase (Homo sapiens, UniProt O76074); experiment: Inhibition of human PDE5A1 (535-860 residues) expressed in Escherichia coli BL21 incubated for 15 mins using [3H]-cGMP as substrate by liquid scintillation counting method
[2] = molecular target: DNA topoisomerase 2-alpha (Homo sapiens) (UniProt P11388); experiment: Inhibition of Top2 (unknown origin) mediated supercoiled DNA relaxation at 100 uM
Sequence of DNA topoisomerase 2-alpha (Homo sapiens) (P11388 whole entry): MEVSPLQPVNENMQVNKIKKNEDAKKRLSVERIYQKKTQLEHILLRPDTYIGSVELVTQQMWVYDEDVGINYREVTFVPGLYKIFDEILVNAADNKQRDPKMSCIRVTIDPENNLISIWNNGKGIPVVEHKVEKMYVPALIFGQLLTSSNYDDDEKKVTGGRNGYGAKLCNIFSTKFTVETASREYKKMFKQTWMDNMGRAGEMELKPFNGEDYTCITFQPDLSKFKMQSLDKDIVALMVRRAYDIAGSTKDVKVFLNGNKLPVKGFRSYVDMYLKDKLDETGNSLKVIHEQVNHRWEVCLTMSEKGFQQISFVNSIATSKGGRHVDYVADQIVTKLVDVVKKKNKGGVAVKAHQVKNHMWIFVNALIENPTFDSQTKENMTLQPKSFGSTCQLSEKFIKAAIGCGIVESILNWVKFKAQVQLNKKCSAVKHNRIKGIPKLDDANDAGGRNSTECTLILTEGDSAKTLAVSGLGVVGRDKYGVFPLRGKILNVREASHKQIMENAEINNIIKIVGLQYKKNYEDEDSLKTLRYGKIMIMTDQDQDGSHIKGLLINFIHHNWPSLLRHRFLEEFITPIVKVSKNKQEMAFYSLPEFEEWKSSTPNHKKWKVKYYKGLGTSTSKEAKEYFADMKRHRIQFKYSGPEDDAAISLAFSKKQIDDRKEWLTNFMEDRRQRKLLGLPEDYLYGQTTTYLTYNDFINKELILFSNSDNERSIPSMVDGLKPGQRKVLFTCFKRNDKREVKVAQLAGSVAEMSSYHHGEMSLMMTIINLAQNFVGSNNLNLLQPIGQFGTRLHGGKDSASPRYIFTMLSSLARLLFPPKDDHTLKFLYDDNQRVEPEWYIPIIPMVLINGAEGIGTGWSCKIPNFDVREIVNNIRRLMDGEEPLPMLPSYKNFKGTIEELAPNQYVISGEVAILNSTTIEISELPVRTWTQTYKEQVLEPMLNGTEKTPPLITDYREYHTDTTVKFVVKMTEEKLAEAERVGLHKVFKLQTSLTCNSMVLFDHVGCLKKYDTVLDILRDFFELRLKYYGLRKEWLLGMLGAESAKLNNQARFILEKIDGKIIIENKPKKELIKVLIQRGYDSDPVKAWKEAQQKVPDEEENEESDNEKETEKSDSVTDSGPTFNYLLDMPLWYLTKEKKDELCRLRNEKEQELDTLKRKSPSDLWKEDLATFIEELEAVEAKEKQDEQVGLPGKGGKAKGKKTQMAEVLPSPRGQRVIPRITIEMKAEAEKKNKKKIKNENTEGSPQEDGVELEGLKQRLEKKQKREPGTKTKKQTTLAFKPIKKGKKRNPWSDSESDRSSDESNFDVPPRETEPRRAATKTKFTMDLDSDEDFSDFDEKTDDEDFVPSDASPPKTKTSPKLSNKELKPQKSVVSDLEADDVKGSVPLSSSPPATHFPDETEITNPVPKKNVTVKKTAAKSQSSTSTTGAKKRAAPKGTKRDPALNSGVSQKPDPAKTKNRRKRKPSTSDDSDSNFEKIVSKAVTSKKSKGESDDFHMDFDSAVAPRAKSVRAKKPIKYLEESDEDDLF

[3] = molecular target: T1, DNA topoisomerase 1 (Homo sapiens) (UniProt P11387); experiment: Inhibition of Top (unknown origin) mediated supercoiled DNA relaxation at 100 uM
T1 sequence (whole entry): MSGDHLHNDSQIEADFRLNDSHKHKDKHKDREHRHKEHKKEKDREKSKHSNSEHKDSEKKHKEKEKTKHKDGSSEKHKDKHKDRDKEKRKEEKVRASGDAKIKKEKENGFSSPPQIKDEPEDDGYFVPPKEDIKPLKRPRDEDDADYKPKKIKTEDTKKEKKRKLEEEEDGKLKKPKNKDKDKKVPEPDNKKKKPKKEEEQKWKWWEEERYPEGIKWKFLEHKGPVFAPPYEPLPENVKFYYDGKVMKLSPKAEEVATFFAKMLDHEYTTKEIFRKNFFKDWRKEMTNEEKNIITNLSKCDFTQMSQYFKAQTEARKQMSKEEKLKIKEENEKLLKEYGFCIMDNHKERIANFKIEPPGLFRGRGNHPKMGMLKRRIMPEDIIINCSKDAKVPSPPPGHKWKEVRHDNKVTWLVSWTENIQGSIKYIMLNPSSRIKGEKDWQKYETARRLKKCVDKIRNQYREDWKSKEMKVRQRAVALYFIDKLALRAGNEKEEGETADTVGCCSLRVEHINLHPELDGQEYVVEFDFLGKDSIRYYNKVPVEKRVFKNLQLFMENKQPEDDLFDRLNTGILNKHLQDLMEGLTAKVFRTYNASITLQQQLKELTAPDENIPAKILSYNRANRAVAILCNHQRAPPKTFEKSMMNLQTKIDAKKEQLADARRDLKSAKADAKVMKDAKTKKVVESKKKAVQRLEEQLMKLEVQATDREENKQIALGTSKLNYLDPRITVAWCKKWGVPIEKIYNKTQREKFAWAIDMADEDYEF

[4] = molecular target: Dual specificity calcium/calmodulin-dependent 3',5'-cyclic nucleotide phosphodiesterase 1B (Homo sapiens, UniProt Q01064); experiment: Inhibition of human PDE1B (10-487 residues) expressed in Sf9 cells incubated for 15 mins using [3H]-cGMP as substrate by liquid scintillation counting method
Sequence of Dual specificity calcium/calmodulin-dependent 3',5'-cyclic nucleotide phosphodiesterase 1B (Q01064 whole entry, the tested form may be a part): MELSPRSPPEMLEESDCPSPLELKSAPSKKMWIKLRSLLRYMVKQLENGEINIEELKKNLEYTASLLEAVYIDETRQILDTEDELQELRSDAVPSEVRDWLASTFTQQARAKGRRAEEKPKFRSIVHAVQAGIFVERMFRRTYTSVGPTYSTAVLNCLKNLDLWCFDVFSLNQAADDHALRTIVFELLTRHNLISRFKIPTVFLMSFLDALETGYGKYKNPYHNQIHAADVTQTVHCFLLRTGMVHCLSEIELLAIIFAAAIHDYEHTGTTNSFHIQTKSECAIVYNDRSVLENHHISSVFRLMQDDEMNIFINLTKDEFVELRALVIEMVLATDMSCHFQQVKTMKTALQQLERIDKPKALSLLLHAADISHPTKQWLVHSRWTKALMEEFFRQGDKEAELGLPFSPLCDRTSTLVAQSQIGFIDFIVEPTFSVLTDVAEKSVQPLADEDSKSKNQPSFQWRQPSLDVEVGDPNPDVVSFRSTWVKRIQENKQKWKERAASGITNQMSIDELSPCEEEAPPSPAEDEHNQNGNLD

[5] = molecular target: High affinity 3',5'-cyclic-AMP phosphodiesterase 7A (Homo sapiens, UniProt Q13946); experiment: Inhibition of PDE7A1 catalytic domain (130 to 482 residues) (unknown origin) using [3H]-cAMP as substrate after 15 mins by liquid scintillation counting method
Sequence of High affinity 3',5'-cyclic-AMP phosphodiesterase 7A (Q13946 whole entry, the tested form may be a part): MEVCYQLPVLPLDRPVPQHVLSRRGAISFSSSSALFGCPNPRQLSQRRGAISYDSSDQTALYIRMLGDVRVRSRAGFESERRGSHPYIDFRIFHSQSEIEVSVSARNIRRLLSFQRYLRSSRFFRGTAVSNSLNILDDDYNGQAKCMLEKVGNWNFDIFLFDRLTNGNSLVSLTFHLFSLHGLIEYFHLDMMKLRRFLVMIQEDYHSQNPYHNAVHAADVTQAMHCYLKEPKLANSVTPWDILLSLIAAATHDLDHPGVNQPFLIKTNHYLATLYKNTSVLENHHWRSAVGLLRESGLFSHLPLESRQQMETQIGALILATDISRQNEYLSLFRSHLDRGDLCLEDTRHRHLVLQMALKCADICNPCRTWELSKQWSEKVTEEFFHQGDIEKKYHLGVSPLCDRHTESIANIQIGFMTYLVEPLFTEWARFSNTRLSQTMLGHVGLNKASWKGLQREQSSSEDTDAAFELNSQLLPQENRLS

[6] = molecular target: cAMP and cAMP-inhibited cGMP 3',5'-cyclic phosphodiesterase 10A (Homo sapiens, UniProt Q9Y233); experiment: Inhibition of human PDE10A catalytic domain (449 to 770 residues) using [3H]-cAMP as substrate after 15 mins by liquid scintillation counting method
Sequence of cAMP and cAMP-inhibited cGMP 3',5'-cyclic phosphodiesterase 10A (Q9Y233 whole entry, the tested form may be a part): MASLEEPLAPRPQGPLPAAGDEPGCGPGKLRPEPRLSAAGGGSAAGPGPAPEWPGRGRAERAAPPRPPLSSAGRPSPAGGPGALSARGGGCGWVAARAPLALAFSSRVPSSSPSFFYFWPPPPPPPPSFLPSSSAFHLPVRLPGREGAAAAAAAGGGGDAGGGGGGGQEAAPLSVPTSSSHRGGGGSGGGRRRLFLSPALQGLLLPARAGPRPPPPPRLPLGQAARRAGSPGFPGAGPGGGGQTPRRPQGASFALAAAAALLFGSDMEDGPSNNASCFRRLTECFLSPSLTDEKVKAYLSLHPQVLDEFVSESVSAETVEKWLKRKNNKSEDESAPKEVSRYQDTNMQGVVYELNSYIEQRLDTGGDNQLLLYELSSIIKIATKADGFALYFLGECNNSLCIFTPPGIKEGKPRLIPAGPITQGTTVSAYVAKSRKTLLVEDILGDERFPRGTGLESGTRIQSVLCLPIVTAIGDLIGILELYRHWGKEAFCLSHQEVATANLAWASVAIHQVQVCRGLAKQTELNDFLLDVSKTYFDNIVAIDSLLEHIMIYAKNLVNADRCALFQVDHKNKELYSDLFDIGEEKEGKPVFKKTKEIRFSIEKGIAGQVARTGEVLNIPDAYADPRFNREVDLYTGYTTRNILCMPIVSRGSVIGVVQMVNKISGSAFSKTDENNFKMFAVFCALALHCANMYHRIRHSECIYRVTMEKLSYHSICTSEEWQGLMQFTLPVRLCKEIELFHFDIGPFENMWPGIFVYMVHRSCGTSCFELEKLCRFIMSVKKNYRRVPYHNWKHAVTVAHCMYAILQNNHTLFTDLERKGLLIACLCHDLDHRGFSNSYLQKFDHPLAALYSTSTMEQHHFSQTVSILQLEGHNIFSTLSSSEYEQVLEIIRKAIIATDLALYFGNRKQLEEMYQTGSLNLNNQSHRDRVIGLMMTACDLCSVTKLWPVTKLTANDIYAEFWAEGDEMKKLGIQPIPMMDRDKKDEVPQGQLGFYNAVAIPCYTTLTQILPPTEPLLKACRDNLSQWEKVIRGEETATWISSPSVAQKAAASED

[7] = molecular target: Dual 3',5'-cyclic-AMP and -GMP phosphodiesterase 11A (Homo sapiens, UniProt Q9HCR9); experiment: Inhibition of PDE11A catalytic domain (unknown origin) using [3H]-cAMP or [3H]-[…] as substrate after 15 mins by liquid scintillation counting method
Sequence of Dual 3',5'-cyclic-AMP and -GMP phosphodiesterase 11A (Q9HCR9 whole entry, the tested form may be a part): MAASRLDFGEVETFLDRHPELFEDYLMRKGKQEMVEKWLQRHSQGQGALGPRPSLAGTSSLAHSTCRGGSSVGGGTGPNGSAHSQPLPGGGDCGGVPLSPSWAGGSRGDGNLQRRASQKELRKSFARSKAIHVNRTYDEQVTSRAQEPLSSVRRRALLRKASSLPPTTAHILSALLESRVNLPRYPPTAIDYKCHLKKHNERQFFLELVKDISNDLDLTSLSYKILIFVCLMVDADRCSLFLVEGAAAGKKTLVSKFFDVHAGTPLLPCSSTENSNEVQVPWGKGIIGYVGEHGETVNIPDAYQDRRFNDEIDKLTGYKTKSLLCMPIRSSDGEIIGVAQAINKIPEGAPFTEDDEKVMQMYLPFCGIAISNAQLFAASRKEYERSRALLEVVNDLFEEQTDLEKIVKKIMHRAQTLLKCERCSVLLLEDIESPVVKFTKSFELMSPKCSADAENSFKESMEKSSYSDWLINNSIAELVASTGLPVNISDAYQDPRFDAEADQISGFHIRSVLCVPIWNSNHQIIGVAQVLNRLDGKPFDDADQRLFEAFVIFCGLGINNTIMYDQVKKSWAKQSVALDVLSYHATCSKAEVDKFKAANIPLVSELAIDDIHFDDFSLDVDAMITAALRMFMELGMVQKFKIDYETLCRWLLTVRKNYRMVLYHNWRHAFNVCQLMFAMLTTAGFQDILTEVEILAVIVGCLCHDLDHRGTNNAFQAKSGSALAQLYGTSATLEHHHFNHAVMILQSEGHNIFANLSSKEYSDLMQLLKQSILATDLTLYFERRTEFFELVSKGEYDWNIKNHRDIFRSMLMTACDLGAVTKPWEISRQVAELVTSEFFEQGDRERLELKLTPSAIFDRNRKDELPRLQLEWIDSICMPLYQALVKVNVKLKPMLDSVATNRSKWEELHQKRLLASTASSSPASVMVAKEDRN

Homo sapiens = species: Homo sapiens; experiment: Selectivity index, ratio of IC50 for human PDE6C to IC50 for human PDE5A1
[8] = Inhibition of human PDE5A1 D563A mutant expressed in Escherichia coli BL21 incubated for 15 mins using [3H]-cGMP as substrate by liquid scintillation counting method
[9] = system: COc1ccc2c3c([nH]c2c1)[C@@H]1N(CC3)C(=O)c2c(OC)cccc2N1C; experiment: Negative allosteric modulator activity at human PDE5A1 (535-860 residues) expressed in Escherichia coli BL21 assessed as Km for cGMP at 25 nM incubated for 15 mins using [3H]-cGMP as substrate by liquid scintillation counting method (reference value: 4.22 +/- 0.45 uM); conditions: filed as negative allosteric modulator
[10] = system: COc1ccc2c3c([nH]c2c1)[C@@H]1N(CC3)C(=O)c2c(OC)cccc2N1C; experiment: Negative allosteric modulator activity at human PDE5A1 (535-860 residues) expressed in Escherichia coli BL21 assessed as Km for cGMP at 50 nM incubated for 15 mins using [3H]-cGMP as substrate by liquid scintillation counting method (reference value: 4.22 +/- 0.45 uM); conditions: filed as negative allosteric modulator
[11] = system: COc1ccc2c3c([nH]c2c1)[C@@H]1N(CC3)C(=O)c2c(OC)cccc2N1C; experiment: Negative allosteric modulator activity at human PDE5A1 (535-860 residues) expressed in Escherichia coli BL21 assessed as Km for cGMP at 100 nM incubated for 15 mins using [3H]-cGMP as substrate by liquid scintillation counting method (reference value: 4.22 +/- 0.45 uM); conditions: filed as negative allosteric modulator
[12] = system: COc1ccc2c3c([nH]c2c1)[C@@H]1N(CC3)C(=O)c2c(OC)cccc2N1C; experiment: Negative allosteric modulator activity at human PDE5A1 (535-860 residues) expressed in Escherichia coli BL21 assessed as Km for cGMP at 200 nM incubated for 15 mins using [3H]-cGMP as substrate by liquid scintillation counting method (reference value: 4.22 +/- 0.45 uM); conditions: filed as negative allosteric modulator
[13] = system: COc1ccc2c3c([nH]c2c1)[C@@H]1N(CC3)C(=O)c2c(OC)cccc2N1C; experiment: Negative allosteric modulator activity at human PDE5A1 (535-860 residues) expressed in Escherichia coli BL21 assessed as Kcat for cGMP at 25 nM incubated for 15 mins using [3H]-cGMP as substrate by liquid scintillation counting method (reference value: 2.53 +/- 0.24 /s); conditions: filed as negative allosteric modulator
[14] = system: COc1ccc2c3c([nH]c2c1)[C@@H]1N(CC3)C(=O)c2c(OC)cccc2N1C; experiment: Negative allosteric modulator activity at human PDE5A1 (535-860 residues) expressed in Escherichia coli BL21 assessed as Kcat for cGMP at 50 nM incubated for 15 mins using [3H]-cGMP as substrate by liquid scintillation counting method (reference value: 2.53 +/- 0.24 /s); conditions: filed as negative allosteric modulator
[15] = system: COc1ccc2c3c([nH]c2c1)[C@@H]1N(CC3)C(=O)c2c(OC)cccc2N1C; experiment: Negative allosteric modulator activity at human PDE5A1 (535-860 residues) expressed in Escherichia coli BL21 assessed as Kcat for cGMP at 100 nM incubated for 15 mins using [3H]-cGMP as substrate by liquid scintillation counting method (reference value: 2.53 +/- 0.24 /s); conditions: filed as negative allosteric modulator
[16] = system: COc1ccc2c3c([nH]c2c1)[C@@H]1N(CC3)C(=O)c2c(OC)cccc2N1C; experiment: Negative allosteric modulator activity at human PDE5A1 (535-860 residues) expressed in Escherichia coli BL21 assessed as Kcat for cGMP at 200 nM incubated for 15 mins using [3H]-cGMP as substrate by liquid scintillation counting method (reference value: 2.53 +/- 0.24 /s); conditions: filed as negative allosteric modulator
[17] = system: COc1ccc2c3c([nH]c2c1)[C@@H]1N(CC3)C(=O)c2c(OC)cccc2N1C; experiment: Negative allosteric modulator activity at human PDE5A1 (535-860 residues) expressed in Escherichia coli BL21 assessed as Kcat/Km ratio for cGMP at 25 nM incubated for 15 mins using [3H]-cGMP as substrate by liquid scintillation counting method (reference value: 0.6 +/- 0.04 /s/microM); conditions: filed as negative allosteric modulator
[18] = system: COc1ccc2c3c([nH]c2c1)[C@@H]1N(CC3)C(=O)c2c(OC)cccc2N1C; experiment: Negative allosteric modulator activity at human PDE5A1 (535-860 residues) expressed in Escherichia coli BL21 assessed as Kcat/Km ratio for cGMP at 50 nM incubated for 15 mins using [3H]-cGMP as substrate by liquid scintillation counting method (reference value: 0.6 +/- 0.04 /s/microM); conditions: filed as negative allosteric modulator
[19] = system: COc1ccc2c3c([nH]c2c1)[C@@H]1N(CC3)C(=O)c2c(OC)cccc2N1C; experiment: Negative allosteric modulator activity at human PDE5A1 (535-860 residues) expressed in Escherichia coli BL21 assessed as Kcat/Km ratio for cGMP at 100 nM incubated for 15 mins using [3H]-cGMP as substrate by liquid scintillation counting method (reference value: 0.6 +/- 0.04 /s/microM); conditions: filed as negative allosteric modulator
[20] = system: COc1ccc2c3c([nH]c2c1)[C@@H]1N(CC3)C(=O)c2c(OC)cccc2N1C; experiment: Negative allosteric modulator activity at human PDE5A1 (535-860 residues) expressed in Escherichia coli BL21 assessed as Kcat/Km ratio for cGMP at 200 nM incubated for 15 mins using [3H]-cGMP as substrate by liquid scintillation counting method (reference value: 0.6 +/- 0.04 /s/microM); conditions: filed as negative allosteric modulator

Molecule: COc1ccc2c3c([nH]c2c1)[C@H]1N(CC3)C(=O)c2c(OC)cccc2N1C
IC50 [1]: > 10000 nM

Molecule: CN1c2cccc(O)c2C(=O)N2CCc3c([nH]c4ccccc34)[C@H]21
IC50 [1]: 420 nM

Molecule: CN1c2cccc(O)c2C(=O)N2CCc3c([nH]c4ccccc34)C21 (stereo not drawn)
IC50 [1]: 1700 nM

Molecule: COc1cccc2c1C(=O)N1CCc3c([nH]c4ccccc34)[C@H]1N2C
IC50 [1]: 110 nM | Ratio IC50 (Homo sapiens): > 190

Molecule: CCCc1nn(C)c2c(=O)[nH]c(-c3cc(S(=O)(=O)N4CCN(C)CC4)ccc3OCC)nc12
IC50 [8]: 1.2 nM

Molecule: CN1c2cccc(O)c2C(=O)N2CCc3c([nH]c4ccccc34)[C@@H]21
IC50 [1]: > 10000 nM

Molecule: COc1cccc2c1C(=O)N1CCc3c([nH]c4ccccc34)C1N2C (stereo not drawn)
IC50 [1]: 340 nM | Ratio IC50 (Homo sapiens): > 64

Molecule: cGMP-specific 3',5'-cyclic phosphodiesterase (Homo sapiens) (from UniProt O76074)
Km [9]: 11.8 µM | Km [10]: 11.8 µM | Km [11]: 13.2 µM | Km [12]: 12.5 µM | kcat [13]: 1.99 s⁻¹ | kcat [14]: 1.51 s⁻¹ | kcat [15]: 1.48 s⁻¹ | kcat [16]: 1.05 s⁻¹ | kcat/Km [17]: 170000 M⁻¹ s⁻¹ | kcat/Km [18]: 130000 M⁻¹ s⁻¹ | kcat/Km [19]: 110000 M⁻¹ s⁻¹ | kcat/Km [20]: 84000 M⁻¹ s⁻¹

Molecule: CN1c2ccccc2C(=O)N2CCc3c([nH]c4ccccc34)[C@H]21
IC50 [1]: 1300 nM

Molecule: CN1c2ccccc2C(=O)N2CCc3c([nH]c4ccccc34)C21 (stereo not drawn)
IC50 [1]: 2100 nM

More lines, now with the values ahead:

IC50 [1]: 35 nM | inhibition [2]: inactive | inhibition [3]: inactive | IC50 [4]: > 20000 nM | IC50 [5]: > 20000 nM | IC50 [6]: 2200 nM | IC50 [7]: > 20000 nM
Molecule: COc1cccc2c1C(=O)N1CCc3c([nH]c4cccc(OC)c34)[C@H]1N2C

IC50 [1]: 2600 nM
Molecule: COc1cccc2c1C(=O)N1CCc3c([nH]c4ccccc34)[C@@H]1N2C

IC50 [1]: 53 nM
Molecule: COc1ccc2c3c([nH]c2c1)C1N(CC3)C(=O)c2c(OC)cccc2N1C (stereo not drawn)

IC50 [1]: > 50000 nM
Molecule: CN1c2ccccc2C(=O)N2CCc3c([nH]c4ccccc34)[C@@H]21 [EVODIAMINE]
